Experimental data reported in US20220304308A1, “METHOD FOR CONTROLLING GROWTH OF GLYPHOSATE-TOLERANT PLANTS” (JIANGSU ROTAM CHEMISTRY CO., LTD., priority 2019, published 2022).

Tests used:
Format in all cases: in vivo
[1] = test system: glyphosate-resistant sourgrass (Digitaria insularis); experiment: Post-emergence treatment test on glyphosate-resistant sourgrass, nicosulfuron WG formulations (Example 1); conditions: conclusion from Table 2
Protocol: Post-emergence treatment tests were conducted on glyphosate-resistant sourgrass (Digitaria insularis). Sourgrass plants were planted and kept in a greenhouse at about 24° C. and 85% humidity throughout the experiment.
The WG formulations were each diluted with water prior to treatment of the sourgrass plants.
The herbicidal efficiency of each formulation as determined by visual observation at each of 7, 14 and 20 days after the treatment.
The the efficacy of each formulation is represented by a comparison between the treated plants and the Control plants. A score of 0% represents no herbicidal activity. A score of 100% represents complete herbicidal activity (plants completely killed).

soybean plants [2] = experiment: Phytotoxicity tests on soybean sown 20 days after treatment under conditions X1-X4 (Example 4); conditions: Nicosulfuron 75 g/ha, Glyphosate 0 g/ha, 150 L/ha, evaluated 7 days after emergence, EWRC scale 1-9
Protocol: Sourgrass plants were planted and kept at the conditions summarised in Table 7 below throughout the experiment:
The WG formulations were dispersed in water and applied to the locus of the sourgrass plants at a volumetric rate of 150 L/ha.
Soybean seeds were sown in a greenhouse in the treated plots 20 days after the treatment with the herbicide(s). The period of 20 days was determined by applying Formula I above to the parameters set out above.
(§1) In order to quantify the damage caused to the soybean plants, visual analysis of phytotoxicity was conducted and recorded based on the scale proposed by the European Weed Research Council. The extent of damage on this scale varies from 1 to 9, where “1” represents absence of symptoms and “9” represents total plant destruction.
Evaluation was conducted 7 days after emergence of the soybean plants.

soybean plants [3] = experiment: Phytotoxicity test on soybean sown in treated plots at different times after treatment (Example 3); parameters: key: EWRC scale 1-9: 1 = no symptoms, 9 = total plant destruction
Protocol: Sourgrass plants were planted and kept at about 24° C. and 85% humidity throughout the experiment.
The sourgrass plants were treated with water dispersible granule (WG) formulations of nicosulfuron and/or glyphosate as summarised in Table 5.
Soybean seeds were sown separately in each of the treated plots 1 day, 7 days, 14 days, 20 days and 30 days after the treatment.
as §1
Evaluation was conducted 7 days, 14 days, 21 days and 28 days after emergence of the soybean plants.

## COc1cc(OC)nc(NC(=O)NS(=O)(=O)c2ncccc2C(=O)N(C)C)n1 [Nicosulfuron, 2-(4,6-dimethoxypyrimidin-2-ylcarbamoylsulfamoyl)-N,N-dimethylnicotinamide]
[1]
  control of sourgrass plants (in words): effective
Soybean plants [2]; conditions X1 (17 ° C., 95% humidity, 8.5 hr sunlight per day), soybean sown 20 days after treatment
  Phytotoxicity Level: 1
Soybean plants [2]; conditions X2 (24 ° C., 85% humidity, 9 hr sunlight per day), sown 20 days after treatment
  Phytotoxicity Level: 1
Soybean plants [2]; conditions X3 (32 ° C., 65% humidity, 9.5 hr sunlight per day), sown 20 days after treatment
  Phytotoxicity Level: 1
Soybean plants [2]; conditions X4 (37 ° C., 30% humidity, 10 hr sunlight per day), sown 20 days after treatment
  Phytotoxicity Level: 1
Soybean plants [3]; Nicosulfuron 50 g/ha, Glyphosate 0 g/ha (A3 of Table 5), soybean sown 1 day after treatment, EWRC scale 1 (absence of symptoms) to 9 (total plant destruction)
  Phytotoxicity Level: 4
Soybean plants [3]; Nicosulfuron 50 g/ha, Glyphosate 0 g/ha (A3 of Table 5), soybean sown 7 days after treatment, EWRC scale 1-9
  Phytotoxicity Level: 3
Soybean plants [3]; Nicosulfuron 50 g/ha, Glyphosate 0 g/ha (A3 of Table 5), soybean sown 14 days after treatment, EWRC scale 1-9
  Phytotoxicity Level: 2
Soybean plants [3]; Nicosulfuron 50 g/ha, Glyphosate 0 g/ha (A3 of Table 5), soybean sown 20 days after treatment, EWRC scale 1-9
  Phytotoxicity Level: 1
Soybean plants [3]; Nicosulfuron 50 g/ha, Glyphosate 0 g/ha (A3 of Table 5), soybean sown 30 days after treatment, EWRC scale 1-9
  Phytotoxicity Level: 1
Soybean plants [3]; Nicosulfuron 75 g/ha, Glyphosate 0 g/ha (C3 of Table 5), soybean sown 1 day after treatment, EWRC scale 1-9
  Phytotoxicity Level: 4
Soybean plants [3]; Nicosulfuron 75 g/ha, Glyphosate 0 g/ha (C3 of Table 5), soybean sown 7 days after treatment, EWRC scale 1-9
  Phytotoxicity Level: 4
Soybean plants [3]; Nicosulfuron 75 g/ha, Glyphosate 0 g/ha (C3 of Table 5), soybean sown 14 days after treatment, EWRC scale 1-9
  Phytotoxicity Level: 2
Soybean plants [3]; Nicosulfuron 75 g/ha, Glyphosate 0 g/ha (C3 of Table 5), soybean sown 20 days after treatment, EWRC scale 1-9
  Phytotoxicity Level: 1
Soybean plants [3]; Nicosulfuron 75 g/ha, Glyphosate 0 g/ha (C3 of Table 5), soybean sown 30 days after treatment, EWRC scale 1-9
  Phytotoxicity Level: 1
